Test results taken from patent US10806785B2, “Immunomodulator compounds and methods of use” (Incyte Corporation, priority 2016, dated 2020).

Target: PD-1/PD-L1 (Homo sapiens (Human), UniProt Q9NZQ7)
Assay: PD-1/PD-L1 binding assay (HTRF)
Procedure, shortened: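 Fc-tagged human PD-1 (25-167) and His-tagged PD-L1 (19-238), listed as […] and 10 nM final, preincubated 40 min with inhibitors in PBS pH 7.4, 0.05% Tween-20, 0.1% BSA, 1% DMSO, 25 °C. Eu anti-IgG/APC anti-His added, 60 min, 665/620 nm HTRF ratio; IC50 fitted from percent control activity.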

PD-1/PD-L1, sequence (Q9NZQ7 19-238): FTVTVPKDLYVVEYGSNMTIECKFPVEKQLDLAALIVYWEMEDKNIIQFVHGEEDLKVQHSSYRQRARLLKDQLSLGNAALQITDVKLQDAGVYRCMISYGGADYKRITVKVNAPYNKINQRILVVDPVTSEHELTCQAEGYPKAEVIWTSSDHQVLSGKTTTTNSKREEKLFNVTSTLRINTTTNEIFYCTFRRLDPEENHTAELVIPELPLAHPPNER

For `Cc1c(NC(=O)c2nc3c(n2C)CCN(C2CCC(C)(C(=O)O)CC2)C3)cccc1-c1cccc(NC(=O)c2nc3c(n2C)CCN(C2CCCCC2)C3)c1Cl` (centres unmarked) [Example 107, 4-(2-((2′-chloro-3′-(5-cyclohcxyl-1-methyl-4,5,6,7-tetrahydro-1H-imidazo[4,5-c]pyridine-2-carboxamido)-2-methyl-[1,1′-biphenyl]-3-yl)carbamoyl)-1-methyl-1,4,6,7-tetrahydro-5H-imidazo[4,5-c]pyridin-5-yl)-1-methylcyclohexane-1-carboxylic acid], the IC50 was at most 10 nM.
Molecule `Cc1c(NC(=O)c2nc3c(n2C)CCN(C2CCC(C)(C(=O)O)CC2)C3)cccc1-c1cccc(NC(=O)c2nc3c(n2C)CCN(C2CCOCC2)C3)c1Cl` (centres unmarked) [Example 108, 4-(2-((2′-chloro-2-methyl-3′-(1-methyl-5-(tetrahydro-2H-pyran-4-yl)-4,5,6,7-tetrahydro-1H-imidazo[4,5-c]pyridine-2-carboxamido)-[1,1′-biphenyl]-3-yl)carbamoyl)-1-methyl-1,4,6,7-tetrahydro-5H-imidazo[4,5-c]pyridin-5-yl)-1-methylcyclohexane-1-carboxylic acid] has an IC50 of at most 10 nM.
Work on `Cc1c(NC(=O)c2nc3c(n2C)CCN(CC[C@H]2CC[C@H](C(=O)O)CC2)C3)cccc1-c1cccc(NC(=O)c2nc3c(n2C)CCN(C2CCOCC2)C3)c1Cl` [Example 109, trans-4-(2-(2-((2′-chloro-2-methyl-3′-(1-methyl-5-(tetrahydro-2H-pyran-4-yl)-4,5,6,7-tetrahydro-1H-imidazo[4,5-c]pyridine-2-carboxamido)-[1,1′-biphenyl]-3-yl)carbamoyl)-1-methyl-1,4,6,7-tetrahydro-5H-imidazo[4,5-c]pyridin-5-yl)ethyl)cyclohexane-1-carboxylic acid] yielded an IC50 of at most 10 nM.
With `Cc1c(NC(=O)c2nc3c(n2C)CCN(C[C@H]2CC[C@H](C(=O)O)CC2)C3)cccc1-c1cccc(NC(=O)c2nc3c(n2C)CCN(C2CCOCC2)C3)c1Cl` [Example 110, trans-4-((2-((2′-chloro-2-methyl-3′-(1-methyl-5-(tetrahydro-2H-pyran-4-yl)-4,5,6,7-tetrahydro-1H-imidazo[4,5-c]pyridine-2-carboxamido)-[1,1′-biphenyl]-3-yl)carbamoyl)-1-methyl-1,4,6,7-tetrahydro-5H-imidazo[4,5-c]pyridin-5-yl)methyl)cyclohexane-1-carboxylic acid] the IC50 was at most 10 nM.
`Cc1c(NC(=O)c2nc3c(n2C)CCN(C2CCC(C(=O)O)CC2)C3)cccc1-c1cccc(NC(=O)c2nc3c(n2C)CCN(C2CCOCC2)C3)c1Cl` (centres unmarked) [Example 111, 4-(2-((2′-chloro-2-methyl-3′-(1-methyl-5-(tetrahydro-2H-pyran-4-yl)-4,5,6,7-tetrahydro-1H-imidazo[4,5-c]pyridine-2-carboxamido)-[1,1′-biphenyl]-3-yl)carbamoyl)-1-methyl-1,4,6,7-tetrahydro-5H-imidazo[4,5-c]pyridin-5-yl)cyclohexane-1-carboxylic acid] showed an IC50 of at most 10 nM.
For `CCC1(C(=O)O)CCC(N2CCc3c(nc(C(=O)Nc4cccc(-c5cccc(NC(=O)c6nc7c(n6C)CCN(C6CCOCC6)C7)c5Cl)c4C)n3C)C2)CC1` (centres unmarked) [Example 112, 4-(2-((2′-chloro-2-methyl-3′-(1-methyl-5-(tetrahydro-2H-pyran-4-yl)-4,5,6,7-tetrahydro-1H-imidazo[4,5-c]pyridine-2-carboxamido)-[1,1′-biphenyl]-3-yl)carbamoyl)-1-methyl-1,4,6,7-tetrahydro-5H-imidazo[4,5-c]pyridin-5-yl)-1-ethylcyclohexane-1-carboxylic acid], the IC50 was at most 10 nM.
`Cc1c(NC(=O)c2nc3c(n2C)CCN(C[C@H]2CC[C@@H](C(=O)O)CC2)C3)cccc1-c1cccc(NC(=O)c2nc3c(n2C)CCNC3)c1Cl` [Example 113, cis-4-((2-((2′-chloro-2-methyl-3′-(1-methyl-4,5,6,7-tetrahydro-1H-imidazo[4,5-c]pyridine-2-carboxamido)-[1,1′-biphenyl]-3-yl)carbamoyl)-1-methyl-1,4,6,7-tetrahydro-5H-imidazo[4,5-c]pyridin-5-yl)methyl)cyclohexane-1-carboxylic acid] was tested, and the IC50 was at most 10 nM.
With `Cc1c(NC(=O)c2nc3c(n2C)CCN(C)C3)cccc1-c1cccc(NC(=O)c2nc3c(n2C)CCN(CC[C@H]2CC[C@H](C(=O)O)CC2)C3)c1Cl` [Example 115, trans-4-(2-(2-((2-chloro-3′-(1,5-dimethyl-4,5,6,7-tetrahydro-1H-imidazo[4,5-c]pyridine-2-carboxamido)-2′-methyl-[1,1′-biphenyl]-3-yl)carbamoyl)-1-methyl-1,4,6,7-tetrahydro-5H-imidazo[4,5-c]pyridin-5-yl)ethyl)cyclohexane-1-carboxylic acid] the IC50 was at most 10 nM.
`Cc1c(NC(=O)c2nc3c(n2C)CCN(C)C3)cccc1-c1cccc(NC(=O)c2nc3c(n2C)CCN(C[C@H]2CC[C@H](C(=O)O)CC2)C3)c1Cl` [Example 116, trans-4-((2-((2-chloro-3′-(1,5-dimethyl-4,5,6,7-tetrahydro-1H-imidazo[4,5-c]pyridine-2-carboxamido)-2′-methyl-[1,1′-biphenyl]-3-yl)carbamoyl)-1-methyl-1,4,6,7-tetrahydro-5H-imidazo[4,5-c]pyridin-5-yl)methyl)cyclohexane-1-carboxylic acid] gave an IC50 of at most 10 nM.
With `Cc1c(NC(=O)c2nc3c(n2C)CCN(C)C3)cccc1-c1cccc(NC(=O)c2nc3c(n2C)CCN(CCc2ccc(C(=O)O)cc2)C3)c1Cl` [Example 117, 4-(2-(2-((2-chloro-3′-(1,5-dimethyl-4,5,6,7-tetrahydro-1H-imidazo[4,5-c]pyridine-2-carboxamido)-2′-methyl-[1,1′-biphenyl]-3-yl)carbamoyl)-1-methyl-1,4,6,7-tetrahydro-5H-imidazo[4,5-c]pyridin-5-yl)ethyl)benzoic acid] the IC50 was at most 10 nM.
`Cc1c(NC(=O)c2nc3c(n2C)CCN(C)C3)cccc1-c1cccc(NC(=O)c2nc3c(n2C)CCN(C2CCC(C)(C(=O)O)CC2)C3)c1Cl` (centres unmarked) [Example 118, 4-(2-((2-chloro-3′-(1,5-dimethyl-4,5,6,7-tetrahydro-1H-imidazo[4,5-c]pyridine-2-carboxamido)-2′-methyl-[1,1′-biphenyl]-3-yl)carbamoyl)-1-methyl-1,4,6,7-tetrahydro-5H-imidazo[4,5-c]pyridin-5-yl)-1-methylcyclohexane-1-carboxylic acid] showed an IC50 of at most 10 nM.
`Cc1c(NC(=O)c2nc3c(n2C)CCN(C)C3)cccc1-c1cccc(NC(=O)c2nc3c(n2C)CCN(CC24CCC(C(=O)O)(CC2)C4)C3)c1Cl` [Example 119, 4-((2-((2-chloro-3′-(1,5-dimethyl-4,5,6,7-tetrahydro-1H-imidazo[4,5-c]pyridine-2-carboxamido)-2′-methyl-[1,1′-biphenyl]-3-yl)carbamoyl)-1-methyl-1,4,6,7-tetrahydro-5H-imidazo[4,5-c]pyridin-5-yl)methyl)bicyclo[2.2.1]heptane-1-carboxylic acid] gave an IC50 of at most 10 nM.
In the case of `CCC1(C(=O)O)CCC(N2CCc3c(nc(C(=O)Nc4cccc(-c5cccc(NC(=O)c6nc7c(n6C)CCN(C)C7)c5C)c4Cl)n3C)C2)CC1` (centres unmarked) [Example 121, 4-(2-((2-chloro-3′-(1,5-dimethyl-4,5,6,7-tetrahydro-1H-imidazo[4,5-c]pyridine-2-carboxamido)-2′-methyl-[1,1′-biphenyl]-3-yl)carbamoyl)-1-methyl-1,4,6,7-tetrahydro-5H-imidazo[4,5-c]pyridin-5-yl)-1-ethylcyclohexane-1-carboxylic acid], the IC50 is reported as at most 10 nM.
With `Cc1c(NC(=O)c2nc3c(n2C)CCN(C2CCOCC2)C3)cccc1-c1cccc(NC(=O)c2nc3c(n2C)CCN(CC[C@H]2CC[C@H](C(=O)O)CC2)C3)c1Cl` [Example 122, trans-4-(2-(2-((2-chloro-2′-methyl-3′-(1-methyl-5-(tetrahydro-2H-pyran-4-yl)-4,5,6,7-tetrahydro-1H-imidazo[4,5-c]pyridine-2-carboxamido)-[1,1′-biphenyl]-3-yl)carbamoyl)-1-methyl-1,4,6,7-tetrahydro-5H-imidazo[4,5-c]pyridin-5-yl)ethyl)cyclohexane-1-carboxylic acid] the IC50 was at most 10 nM.
Work on `Cc1c(NC(=O)c2nc3c(n2C)CCN(C2CCOCC2)C3)cccc1-c1cccc(NC(=O)c2nc3c(n2C)CCN(C[C@H]2CC[C@H](C(=O)O)CC2)C3)c1Cl` [Example 123, trans-4-((2-((2-chloro-2′-methyl-3′-(1-methyl-5-(tetrahydro-2H-pyran-4-yl)-4,5,6,7-tetrahydro-1H-imidazo[4,5-c]pyridine-2-carboxamido)-[1,1′-biphenyl]-3-yl)carbamoyl)-1-methyl-1,4,6,7-tetrahydro-5H-imidazo[4,5-c]pyridin-5-yl)methyl)cyclohexane-1-carboxylic acid] yielded an IC50 of at most 10 nM.
Work on `Cc1c(NC(=O)c2nc3c(n2C)CCN(C2CCOCC2)C3)cccc1-c1cccc(NC(=O)c2nc3c(n2C)CCN(CCc2ccc(C(=O)O)cc2)C3)c1Cl` [Example 124, 4-(2-(2-((2-chloro-2′-methyl-3′-(1-methyl-5-(tetrahydro-2H-pyran-4-yl)-4,5,6,7-tetrahydro-1H-imidazo[4,5-c]pyridine-2-carboxamido)-[1,1′-biphenyl]-3-yl)carbamoyl)-1-methyl-1,4,6,7-tetrahydro-5H-imidazo[4,5-c]pyridin-5-yl)ethyl)benzoic acid] yielded an IC50 of at most 10 nM.
For `Cc1c(NC(=O)c2nc3c(n2C)CCN(C2CCOCC2)C3)cccc1-c1cccc(NC(=O)c2nc3c(n2C)CCN(C2CCC(C(=O)O)CC2)C3)c1Cl` (centres unmarked) [Example 125, 4-(2-((2-chloro-2′-methyl-3′-(1-methyl-5-(tetrahydro-2H-pyran-4-yl)-4,5,6,7-tetrahydro-1H-imidazo[4,5-c]pyridine-2-carboxamido)-[1,1′-biphenyl]-3-yl)carbamoyl)-1-methyl-1,4,6,7-tetrahydro-5H-imidazo[4,5-c]pyridin-5-yl)cyclohexane-1-carboxylic acid], the IC50 was at most 10 nM.
